This is an account of results in US7981923B2, “Tetralin and indane derivatives and uses thereof” (Roche Palo Alto LLC, priority 2006, dated 2011).

Structures are written as SMILES.

The target in this test is T1, recombinant human 5-HT6 receptor (Homo sapiens, UniProt P50406).
T1 construct: expressed in transfected cells; membranes
Nature of the test: Radioligand binding, [3H]LSD competition in HEK293 cell membranes. The following applies: competition for [3H]LSD binding, membranes of HEK293 cells expressing recombinant human 5-HT6 receptor; read-out: pKi for 5-HT6 (converted). The procedure: The binding activity of compounds of this invention in vitro was determined as follows. Duplicate determinations of 5-HT6 ligand affinity were made by competing for binding of [^3H]LSD in cell membranes derived from HEK293 cells stably expressing recombinant human 5-HT6 receptor. Duplicate determinations of 5-HT2A ligand affinity were made by competing for binding of [^3H]Ketanserin (3-(2-(4-(4-fluorobenzoyl)piperidinol)ethyl)-2,4(1H,3H)-quinazolinedione) in cell membranes derived from CHO-K1 cells stably expressing recombinant human 5-HT2A receptor. Membranes were prepared from HEK 293 cell lines by the method described by Monsma et al., Molecular Pharmacology, Vol. 43 pp. 320-327 (1993), and from CHO-K1 cell lines as described by Bonhaus et al., Br J Pharmacol. June; 115 (4):622-8 (1995).
For estimation of affinity at the 5-HT2A receptor all determinations were made in assay buffer containing 50 mM Tris-HCl, 5 mM ascorbic acid, 4 mM CaCl2, pH 7.4 at 32° C., in a 250 microliter reaction volume.
Assay tubes containing [^3H] […] LSD or [^3H]Ketanserin were determined as radioactive counts per minute using Packard TopCount.
Displacement of [^3H]LSD or [^3H]Ketanserin from the binding sites was quantified by fitting concentration-binding data to a 4-parameter logistic equation: […]

T1 sequence (P50406 whole entry): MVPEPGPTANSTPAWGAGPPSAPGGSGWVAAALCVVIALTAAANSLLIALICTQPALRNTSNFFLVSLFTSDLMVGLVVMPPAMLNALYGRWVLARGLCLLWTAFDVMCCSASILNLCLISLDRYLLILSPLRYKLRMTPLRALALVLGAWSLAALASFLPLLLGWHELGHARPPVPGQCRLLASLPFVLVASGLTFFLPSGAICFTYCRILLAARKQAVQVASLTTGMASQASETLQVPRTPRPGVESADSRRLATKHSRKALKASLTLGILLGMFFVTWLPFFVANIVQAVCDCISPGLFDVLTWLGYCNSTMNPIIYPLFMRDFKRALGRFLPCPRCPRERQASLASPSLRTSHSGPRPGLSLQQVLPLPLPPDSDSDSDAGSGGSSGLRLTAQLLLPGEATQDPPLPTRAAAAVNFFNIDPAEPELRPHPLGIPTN

Regarding `NC[C@@H]1CCCc2cc(S(=O)(=O)c3cccc(F)c3)cc(F)c21` (stereo in doubt) [C-[8-Fluoro-6-(3-fluoro-benzenesulfonyl)-1,2,3,4-tetrahydro-naphthalen-1-yl]-methylamine], the Ki is about 100 pM.
